This is an account of results in the METLIN SMRT retention time set (Domingo-Almenara et al. 2019).

This series can be described thus: gradient 5% acetonitrile 3 min, to 50% in 2 min, to 85% in 15 min, held 3 min, 100 µL/min. To be noted: column: Zorbax Extend-C18 2.1 x 50 mm; eluents: water / acetonitrile, 0.1% formic acid. The method, boiled down:
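The system's dead and dwell volumes were 40 μL and 900 μL, with a Zorbax Extend-C18 column (2.1 × 50 mm, 1.8 μm) run at 100 μL/min in water and acetonitrile containing 0.1% formic acid each. Pure standards were analyzed in mixtures of ~100 molecules by HPLC–quadrupole time-of-flight mass spectrometry in positive and negative ionization mode. Retention time was assigned from computationally picked, manually inspected adduct peaks.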
In turn, `N#Cc1ccc(S(=O)(=O)N2CC(c3nc(CCOCC4CCOCC4)no3)C2)cc1` had an RP-LC retention time of 813 s.

The molecule `COc1ccc(CNC(=O)Cn2c(=O)c3cc(-c4ccco4)nn3c3ncccc32)cc1` displayed an RP-LC retention time of 754 s.

Molecule `COc1ccccc1Nc1nc(-c2ccc(Br)cc2)cs1` displayed an RP-LC retention time of 1340 s.

`CCCCC(Sc1nc(=O)[nH]c(C)c1C(=O)OCC)C(=O)O` (centres undefined) returned an RP-LC retention time of 663 s.

As for `Cc1sc2ccn(Cc3ccc(F)cc3)c(=O)c2c1C(=O)N1CCCC1`, the RP-LC retention time was found to be 764 s.

Regarding `CCn1c(=O)sc2cc(S(=O)(=O)N3CCC(C(=O)NCc4cccnc4)CC3)ccc21`, the RP-LC retention time is 610 s.

As to `Cc1cc(C(=O)Nc2ccc3c(c2)OCCO3)no1`, the RP-LC retention time stood at 681 s.

`O=C(N1CC(Oc2cccc(-c3nc(-c4ccccc4)no3)c2)C1)C1(c2ccccc2)CC1` displayed an RP-LC retention time of 1310 s.

Molecule `CCc1cc(=O)n(CC(=O)Nc2ccc3c(c2)OCO3)c(-c2cccc(F)c2)n1` gave an RP-LC retention time of 1100 s.

The molecule `CC(C)C(=O)N1CCc2c(c(C(=O)N3CCC(C(=O)NC4CCCCCC4)CC3)nn2C)C1` came in with an RP-LC retention time of 698 s.

The molecule `Cc1noc(C)c1CNC(=O)Cc1ccc(F)cc1` had an RP-LC retention time of 713 s.

With `O=C(NCc1cccnc1)C1CCN(S(=O)(=O)c2cc(-c3noc(C4CCC4)n3)cs2)CC1`, the RP-LC retention time was 702 s.

`Cc1ccc2nc(N3CCN(c4ccc(F)cc4)CC3)c(-c3noc(C)n3)cc2c1`: the RP-LC retention time is 732 s.

On to `Cc1ccc(CNC(=O)C2CCCN(c3ncc(-c4cccc(F)c4)cn3)C2)o1` (centres undefined), for which the RP-LC retention time is 851 s.

Turning to `O=C(CN1CCN(Cc2ccc(F)cc2)C1=O)NCCc1ccccn1`, the RP-LC retention time came out at 552 s.

For the molecule `Cc1ccc2ncn(C3CCN(S(=O)(=O)c4ccccc4F)CC3)c(=O)c2c1`, the RP-LC retention time was 940 s.

For the molecule `CC(C)CN1C(=O)c2ccccc2C(C(=O)N2CCN(c3ccccn3)CC2)C1c1cccs1` (centres undefined), the RP-LC retention time amounted to 674 s.

The molecule `Cc1csc(C(=O)Nc2cccc3ccc(-n4ccnc4)nc23)c1` had an RP-LC retention time of 641 s.

Consider `Cc1cc(C)cc(NS(=O)(=O)c2c[nH]c3ncccc23)c1`, for which the RP-LC retention time is 758 s.

`O=C(Nc1ccc2c(c1)OCO2)c1nnc(C2CCCN2C(=O)NCc2ccc(F)cc2)s1` (centres undefined) registered an RP-LC retention time of 854 s.

Take `O=C(NCCN1CCCCCC1)C1CCCN(c2ncc(-c3ccc(F)cc3)cn2)C1` (centres undefined): the RP-LC retention time turned out to be 715 s.

Molecule `Cc1cc(C)n(CC(=O)NC(C)c2ccccc2)c1-c1nc(C2CC2)no1` (centres undefined) gave an RP-LC retention time of 914 s.

The molecule `COc1ccc(S(=O)(=O)N2CCc3nc(-c4ccc(F)cc4)ncc3C2)cc1OC` gave an RP-LC retention time of 983 s.

As to `O=C(Nc1ccc2c(c1)CCN2S(=O)(=O)c1ccccc1)Nc1cc(F)ccc1F`, the RP-LC retention time came out at 1070 s.

For the molecule `CC(C)NC(=O)CN1C(=O)CSc2ccc(C(=O)N3CCCCC3)cc21`, the RP-LC retention time is 673 s.

For the molecule `COc1ccc(N2CCN(c3nc(C(=O)NCCN4CCCCC4)cs3)CC2)cc1`, the RP-LC retention time turned out to be 642 s.

In turn, `CC(C)c1nc(-c2ccc(OC3CCN(C(=O)C4(c5ccccc5)CC4)C3)cc2)no1` (centres undefined) yielded an RP-LC retention time of 1120 s.

For the molecule `CCOc1ccc(NC(=O)C2CCN(S(=O)(=O)c3c(C)nn(-c4ccccc4)c3C)CC2)cc1`, the RP-LC retention time was 963 s.

As for `COc1cc(OC)c(NC(=O)Cn2nc3n(c2=O)CCCCC3)cc1Cl`, the RP-LC retention time came to 722 s.

The molecule `O=C(NCc1cccs1)c1ccc(Cn2ccnc2)cc1` showed an RP-LC retention time of 809 s.

`O=C(NCC1CCCO1)c1ccc([N+](=O)[O-])cc1Cl` (centres undefined) returned an RP-LC retention time of 664 s.

With `O=C(Cc1csc2nc(-c3cccc(Cl)c3)cn12)Nc1ccc(F)cc1F`, the RP-LC retention time worked out at 942 s.

In turn, `Cc1cc(C)cc(C(=O)N2CCCC(C(=O)NCCC3=CCCCC3)C2)c1` (centres undefined) gave an RP-LC retention time of 980 s.

`COc1ccc(NC2=NCCO2)c2c1CCCC2` returned an RP-LC retention time of 640 s.

In turn, `CC1(C)COc2ccc(NC(=O)CN3C(=O)c4ccccc4C3=O)cc2NC1=O` returned an RP-LC retention time of 738 s.

As to `O=C(NCCn1c(-c2ccccc2)nc2cccnc21)Nc1ccc2c(c1)OCO2`, the RP-LC retention time is 722 s.

As to `O=C(NCc1ccccc1)N1CCC(Nc2cccnc2)C1` (centres undefined), the RP-LC retention time is 580 s.

In turn, `O=C(c1ccsc1)N1CCC(OCc2nc(C3CC3)no2)CC1` returned an RP-LC retention time of 762 s.

Molecule `COc1c(S(=O)(=O)Nc2cccnc2)ccc(Cl)c1Cl` showed an RP-LC retention time of 649 s.

As to `Cc1[nH]c(C(=O)N2CCC(CC(=O)NCc3ccccc3Cl)CC2)c(C)c1C(=O)OC(C)C`, the RP-LC retention time turned out to be 876 s.

In turn, `Cc1cc(N2CCN(C)CC2)nc(N2CCN(C(=O)c3ccc(-c4ccccc4)cc3)CC2)n1` showed an RP-LC retention time of 585 s.

`COc1ccc(CNC2=NCCNC23CCN(S(=O)(=O)c2ccc(CC(C)C)cc2)CC3)cc1` showed an RP-LC retention time of 878 s.

In the case of `COc1ccc(-c2noc(C3(NC(=O)c4ccc(OC)c(F)c4)CCCCC3)n2)cc1`, the RP-LC retention time was determined as 1140 s.

`CC(C)(C)c1csc(-c2csc(S(=O)(=O)N3CCN(c4ccccn4)CC3)c2)n1` came in with an RP-LC retention time of 974 s.

In turn, `COc1cccc(N2CCN(Cc3nc(-c4ccc(N5CCC(C)CC5)nc4)no3)CC2)c1` had an RP-LC retention time of 1020 s.

As to `O=C(NC(Cc1ccccc1)C(=O)N1CCN(c2ccccn2)CC1)c1cccc(Cl)c1` (centres undefined), the RP-LC retention time was 698 s.

Molecule `O=C(NC1CC1)c1nnc(-c2ccc(S(=O)(=O)N3CCCC3)cc2)o1` returned an RP-LC retention time of 730 s.

With `CN(CC1(C)CCOCC1)S(=O)(=O)c1cn(C)cn1`, the RP-LC retention time was 615 s.

In turn, `Cc1cc(C)cc(NC(=O)N2CCCC(C)(C(=O)NCc3ccccc3)C2)c1` (centres undefined) yielded an RP-LC retention time of 959 s.

Take `Nc1ccc2c(c1)S(=O)(=O)c1cc(N)ccc1-2`: the RP-LC retention time came to 635 s.

Consider `CC(C)Cn1c(=O)c2cc(C(=O)Nc3ccc(N4CCOCC4)cc3)nn2c2ccccc21`, for which the RP-LC retention time amounted to 953 s.

The molecule `O=C(NCc1ccc2c(c1)OCO2)C1CCN(C(=O)c2cccc(F)c2)CC1` came in with an RP-LC retention time of 719 s.

`O=C(C1CCC1)N1CCC(n2cnnc2C2CC2)CC1` had an RP-LC retention time of 598 s.

For `COC(=O)c1ccc(Cl)cc1NC(=O)N(C)Cc1nc2cc(C(=O)N(C)C)ccc2n1C`, the RP-LC retention time is 705 s.

As for `O=C(NCCc1csc(-c2cccc(F)c2)n1)c1ccc([N+](=O)[O-])cc1Cl`, the RP-LC retention time came out at 917 s.

For `CCOc1ccc(C(=O)N2C[C@@H]3C[C@H]2C[C@@H]3NS(C)(=O)=O)cc1`, the RP-LC retention time stood at 658 s.

Take `O=C(c1ccsc1)N1CCC(c2nncn2-c2ccccc2)CC1`: the RP-LC retention time turned out to be 630 s.

Regarding `CN1C(=O)C(C)(C(=O)Nc2ccc(F)cc2)Oc2cccnc21` (centres undefined), the RP-LC retention time was 847 s.

For the molecule `Cc1c(-c2nnc(C3CCC3)o2)c(S(=O)(=O)Nc2cccc(Cl)c2F)c(C)n1C`, the RP-LC retention time came to 1060 s.
